Measurements from patent publication US20130287721A1, “METHOD FOR COUNTERACTING AMMONIA MALODOR” (Firmenich SA, priority 2010, published 2013).

System: ammonia lateralization threshold
Assay: Panel evaluation of the lateralization threshold (LT) of ammonia alone and in combination with a PRM
Assay type: in vivo, panellists
Set-up: LT of ammonia Panellist 1 Cond II / LT of ammonia Panellist 2 Cond II / LT of ammonia Panellist 3 Cond II: unit not given here
Conditions: for Ammonia LT Panellist 1 Cond II / Ammonia LT Panellist 2 Cond II / Ammonia LT Panellist 1 % Δ / Ammonia LT Panellist 2 % Δ: Table 3; for Ammonia LT Panellist 1 Cond II / Ammonia LT Panellist 2 Cond II: ammonia stimulus combined with PRM stimulus (concentration of Table 2 in propylene glycol)
Method: An ammonia stimulus test range was prepared. To ensure a stable level of ammonia in each stimulus, the ammonia headspace was stabilized by combining appropriate concentrations of NH4Cl, NaOH and H2O instead of simply adding ammonia directly to a solvent. Different concentrations of ammonia were used to create a stimulus test range by utilizing the appropriate amount of each compound (see Table 1).
A stimulus was also prepared for each PRM which was intended to be combined with ammonia stimuli. As the PRMs differed in their potency and to ensure that each PRM stimulus had approximately the same potency, an abbreviated dose response curve was constructed for each PRM by having four panellists evaluate the intensity of five concentration levels of the PRM dissolved in propylene glycol in duplicate. Assessments were made relative to the reference of 170 ppm allyl heptanoate in propylene glycol, which intensity was set to 0. Based upon the average scores, a rough intensity match was made for each PRM utilizing one of the following criteria. If one of the tested concentration levels averaged at or near zero, this concentration level was selected. If the rating created any sort of reasonable curve, the equation of the curve was determined and solved for 0 to arrive at the PRM assessment level. If multiple concentration levels were equally distant form the match level, then the standard deviation across individuals was considered, as were the individual responses. In general, the PRM level was selected to be on average close to 0 with low variability, with two panellists saying the level was a bit too high and the other two panellists saying the level was a bit too low. The PRMs for which a stimulus was prepared are listed in Table 2 below, together with the concentration of the PRM in the stimulus.
Volunteers were screened for their ability to lateralize ammonia stimuli. For the screening, the experimenter measured the participant's lateralization threshold for ammonia using a two-alternative forced choice modified staircase procedure employing a four-in, two-down, one-up rule with a five reversal criterion, as described below, On each trial volunteers were presented with a pair of glass bottles with clean, custom-made nose pieces. One bottle contained ammonia at a particular level selected from Table 1 and the other bottle contained water only. Each bottle was applied to one nostril using the nose piece. The volunteers were asked to identify which bottle in each pair contained ammonia.
If the ammonia stimulus was correctly identified in four consecutive trials, the concentration was decreased by one level of Table 1 on the next trial. If an incorrect answer was provided, the concentration was increased by one level of Table 1. Location (left or right nostril) of the stimulus was randomized over presentations. Testing continued until one of the following occurred: • 1) Five reversals (correct decision followed by an incorrect decision or vice versa) were achieved; • 2) The volunteer gave a correct response twice in a row at the lowest level of Table 1; or • 3) The volunteer gave an incorrect response at the highest level of Table 1.
In the first circumstance, threshold values were then calculated by averaging the last four reversals. In the second circumstance, the LT was the lowest level. In the third circumstance, the LT could not be calculated. Volunteers were considered qualified to participate in the panel evaluation if their LT could be calculated (Circumstance 1).
The LT of ammonia, both alone and in combination with diverse PRM, was determined. A repeated-measures design was used, such that the LT with and without the addition of a PRM were both measured at the same time in one person by utilizing interwoven stimuli presentations. The LT for each PRM was measured by two to three panellists, the third panellists being included if the results of the first to panellists disagreed. […]

[1] = Table 4, ammonia stimulus combined with PRM stimulus
[2] = Table 4, change of ammonia LT, Cond II (with PRM) vs Cond I (ammonia alone)
[3] = change of ammonia LT, Cond II (with PRM) vs Cond I (ammonia alone)

Row | Compound | LT of ammonia Panellist 1 Cond II [1] | LT of ammonia Panellist 2 Cond II [1] | LT of ammonia Panellist 3 Cond II [1] | LT of ammonia Panellist 1 %Δ [2] [%] | LT of ammonia Panellist 2 %Δ [2] [%] | LT of ammonia Panellist 3 %Δ [2] [%] | Ammonia LT Panellist 1 Cond II [ppm] | Ammonia LT Panellist 2 Cond II [ppm] | Ammonia LT Panellist 1 % Δ [3] [%] | Ammonia LT Panellist 2 % Δ [3] [%]
1 | CCC=CCC=C/C=C/C(=O)OCC [Ethyl (2E)-2,4,7-decatrienoate] | 1.1 | 2.0 | 2.0 | 223 | 469 | 2743 | – | – | – | –
2 | CCOC(=O)C1CCC(C(=O)OCC)CC1 (centres unmarked) [Fructalate ®, Diethyl 1,4-cyclohexane dicarboxylate] | – | – | – | – | – | – | 56.3 | 188.3 | 194 | 214
3 | CC(OC=O)C1CCCC(C)(C)C1 (centres unmarked) [Aphermate] | – | – | – | – | – | – | 6.1 | 71.9 | −68 | −59
